Source: the supplement of paper PMC10307832

Tests used:
Test in all cases: relative viability (nuclei count vs DMSO), 5 days (fraction); higher = more cells survive
Idelalisib + Dasatinib = compound: CC[C@H](Nc1ncnc2[nH]cnc12)c1nc2cccc(F)c2c(=O)n1-c1ccccc1 [Idelalisib] + Cc1nc(Nc2ncc(C(=O)Nc3c(C)cccc3Cl)s2)cc(N2CCN(CCO)CC2)n1 [Dasatinib] (partner 0.075 µM)
How it was run: (§1)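 Lung cancer cell lines in 1536-well plates got either a single drug or a fixed anchor-drug dose together with five library-drug doses (not always all listed) in √10 steps, by pin tool, on the day after seeding. Nuclei were counted after 5 days, and relative viability is the treated-to-vehicle ratio of nuclei counts. Values are medians of duplicate plates.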

Idelalisib + Vorinostat = compound: CC[C@H](Nc1ncnc2[nH]cnc12)c1nc2cccc(F)c2c(=O)n1-c1ccccc1 [Idelalisib] + O=C(CCCCCCC(=O)Nc1ccccc1)NO [Vorinostat] (partner 1 µM)
How it was run: as §1

Pemetrexed + Pictilisib = compound: Nc1nc2[nH]cc(CCc3ccc(C(=O)N[C@@H](CCC(=O)O)C(=O)O)cc3)c2c(=O)[nH]1 [Pemetrexed] + CS(=O)(=O)N1CCN(Cc2cc3nc(-c4cccc5[nH]ncc45)nc(N4CCOCC4)c3s2)CC1 [Pictilisib] (partner 1 µM)
How it was run: as §1

Pemetrexed + Dasatinib = compound: Nc1nc2[nH]cc(CCc3ccc(C(=O)N[C@@H](CCC(=O)O)C(=O)O)cc3)c2c(=O)[nH]1 [Pemetrexed] + Cc1nc(Nc2ncc(C(=O)Nc3c(C)cccc3Cl)s2)cc(N2CCN(CCO)CC2)n1 [Dasatinib] (partner 0.075 µM)
How it was run: as §1

Cell Line | relative viability (Idelalisib + Dasatinib; first compound 0.04 µM) | relative viability (Idelalisib + Dasatinib; first compound 0.1265 µM) | relative viability (Idelalisib + Dasatinib; first compound 0.4 µM) | relative viability (Idelalisib + Dasatinib; first compound 1.265 µM) | relative viability (Idelalisib + Dasatinib; first compound 4 µM) | relative viability (Idelalisib + Vorinostat; first compound 0.04 µM) | relative viability (Idelalisib + Vorinostat; first compound 0.1265 µM) | relative viability (Idelalisib + Vorinostat; first compound 0.4 µM) | relative viability (Idelalisib + Vorinostat; first compound 1.265 µM) | relative viability (Idelalisib + Vorinostat; first compound 4 µM) | relative viability (Pemetrexed + Pictilisib; first compound 0.002 µM) | relative viability (Pemetrexed + Pictilisib; first compound 0.006325 µM) | relative viability (Pemetrexed + Pictilisib; first compound 0.02 µM) | relative viability (Pemetrexed + Pictilisib; first compound 0.06325 µM) | relative viability (Pemetrexed + Pictilisib; first compound 0.2 µM) | relative viability (Pemetrexed + Dasatinib; first compound 0.002 µM) | relative viability (Pemetrexed + Dasatinib; first compound 0.006325 µM) | relative viability (Pemetrexed + Dasatinib; first compound 0.02 µM) | relative viability (Pemetrexed + Dasatinib; first compound 0.06325 µM) | relative viability (Pemetrexed + Dasatinib; first compound 0.2 µM)
H3255 | 0.442 | 0.342 | 0.386 | 0.391 | 0.312 | 0.978 | 0.853 | 0.796 | 0.91 | 0.736 | 0.385 | 0.43 | 0.504 | 0.42 | 0.431 | 0.236 | 0.403 | 0.429 | 0.362 | 0.29
Calu-6 | – | – | – | – | – | – | – | – | – | – | 0.876 | 0.911 | 0.978 | 0.903 | 0.785 | – | – | – | – | –
SW 900 | 0.497 | 0.543 | 0.417 | 0.543 | 0.326 | 0.442 | 0.548 | 0.407 | 0.514 | 0.441 | – | – | – | – | – | 0.637 | 0.602 | 0.657 | 0.449 | 0.477
NCI-H650 | 0.498 | 0.438 | 0.432 | 0.481 | 0.394 | 0.495 | 0.449 | 0.369 | 0.419 | 0.421 | 0.831 | 0.756 | 0.861 | 0.786 | 0.851 | 0.408 | 0.469 | 0.431 | 0.444 | 0.481
NCI-H460 | 0.571 | 0.535 | 0.405 | 0.5 | 0.428 | 0.526 | 0.783 | 0.692 | 0.525 | 0.686 | 0.233 | 0.396 | 0.383 | 0.313 | 0.121 | 0.357 | 0.536 | 0.524 | 0.406 | 0.101
NCI-H2228 | 0.562 | 0.586 | 0.408 | 0.507 | 0.524 | 0.812 | 0.53 | 0.482 | 0.588 | 0.613 | 0.194 | 0.427 | 0.379 | 0.35 | 0.238 | 0.444 | – | 0.472 | 0.337 | 0.2
NCI-H2085 | 0.244 | 0.19 | 0.188 | 0.246 | 0.19 | 0.794 | 0.788 | 0.702 | 0.614 | 0.484 | 0.503 | 0.425 | 0.506 | 0.548 | 0.507 | 0.23 | 0.228 | 0.291 | 0.23 | 0.242
HCC-366 | 0.679 | 0.705 | 0.433 | 0.62 | 0.601 | 0.391 | 0.36 | 0.33 | 0.293 | 0.325 | 0.193 | 0.133 | 0.151 | 0.127 | 0.14 | 0.574 | 0.613 | 0.683 | 0.71 | 0.527
EPLC-272H | 0.277 | 0.293 | 0.293 | 0.271 | 0.291 | 0.422 | 0.405 | 0.431 | 0.292 | 0.452 | 0.375 | 0.348 | 0.409 | 0.326 | 0.325 | 0.328 | 0.382 | 0.419 | 0.299 | 0.297
201T | 0.609 | 0.614 | 0.476 | 0.623 | 0.605 | 1.01 | 0.982 | 0.874 | 0.997 | 0.755 | 0.625 | 0.698 | 0.715 | 0.632 | 0.5 | 0.59 | 0.554 | 0.592 | 0.559 | 0.507
NCI-H3122 | 0.646 | 0.55 | 0.552 | 0.817 | 0.467 | 1.01 | 1.07 | 0.933 | 1.02 | 0.579 | 0.6 | 0.584 | 0.628 | 0.526 | 0.338 | 0.707 | 0.815 | 0.659 | 0.674 | 0.463
NCI-H838 | 0.248 | 0.307 | 0.219 | 0.283 | 0.345 | 0.752 | 0.731 | 0.68 | 0.716 | 0.618 | 0.443 | 0.392 | 0.532 | 0.267 | 0.248 | 0.361 | 0.285 | 0.262 | 0.212 | 0.218
NCI-H2342 | 0.358 | 0.316 | 0.324 | 0.304 | 0.327 | 0.801 | 0.736 | 0.689 | 0.664 | 0.736 | – | – | – | – | – | 0.257 | 0.322 | 0.351 | 0.325 | 0.321
NCI-H522 | 1.08 | 0.814 | 0.894 | 0.895 | 0.791 | 0.964 | 0.846 | 0.929 | 0.901 | 0.956 | – | – | – | – | – | 0.881 | 0.822 | 0.967 | 0.848 | 0.933
EBC-1 | – | – | – | – | – | – | – | – | – | – | 0.341 | 0.346 | 0.395 | 0.337 | 0.339 | – | – | – | – | –
IA-LM | – | – | – | – | – | 0.607 | 0.907 | 0.913 | 1.02 | 0.944 | 0.115 | 0.323 | – | 0.343 | 0.339 | – | – | – | – | –
NCI-H1703 | – | – | – | – | – | – | – | – | – | – | – | 0.248 | 0.29 | 0.287 | 0.264 | – | – | – | – | –
A549 | – | – | – | – | – | – | – | – | – | – | 0.42 | 0.519 | 0.602 | 0.483 | 0.489 | – | – | – | – | –
HCC-44 | – | – | – | – | – | 1.19 | 1.08 | 1.12 | 1.22 | 1.12 | 1.52 | 0.61 | 0.654 | 0.537 | 0.395 | – | – | – | – | –
NCI-H1623 | 0.505 | 0.559 | 0.52 | 0.517 | 0.602 | – | – | – | – | – | – | – | – | – | – | 0.511 | 0.539 | 0.458 | 0.517 | 0.509
NCI-H1563 | 0.473 | 0.491 | 0.472 | 0.496 | 0.388 | – | – | – | – | – | 0.705 | 0.609 | 0.665 | 0.634 | 0.625 | 0.24 | 0.453 | 0.486 | 0.426 | 0.492
NCI-H1792 | 0.469 | 0.92 | 0.68 | 0.794 | 0.569 | – | – | – | – | – | 0.252 | 0.298 | 0.325 | 0.255 | 0.252 | 0.782 | 0.789 | 0.938 | 0.747 | 0.81
